Data taken from publication PMC9209526 (Nature Communications, 2022).

Target: T1, N4posG321V (Abl kinase domain hinge mutant) (Homo sapiens, UniProt P00519, G321V)
T1 construct: His10-TEV (N, cleaved yes); made in house; host or cells: E. coli BL21(DE3)pLysS, co-expressed with YopH phosphatase
T1 sequence (P00519 229-512 G321V): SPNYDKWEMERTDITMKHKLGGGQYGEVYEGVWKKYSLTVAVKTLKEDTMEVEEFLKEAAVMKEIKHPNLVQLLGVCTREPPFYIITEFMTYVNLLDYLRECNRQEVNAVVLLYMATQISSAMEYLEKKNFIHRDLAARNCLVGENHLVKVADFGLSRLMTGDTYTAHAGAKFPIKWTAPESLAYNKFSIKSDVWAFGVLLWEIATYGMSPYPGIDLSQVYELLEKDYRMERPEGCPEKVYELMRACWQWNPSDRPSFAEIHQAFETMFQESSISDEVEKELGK
Test: ClyA-AS nanopore tweezers single-channel current recording: ligand binding to N4posG321V
Conditions: 1 mM ATP or ATPγS with 10 mM MgCl2; -80 mV

**Q.** How did the “effect on N4posG321V current trace” value turn out when Nc1ncnc2c1ncn2[C@@H]1O[C@H](CO[P@](=O)(O)O[P@](=O)(O)O[P@@](=O)(O)S)[C@@H](O)[C@H]1O [ATPγS] was run?
**A.** did not trigger any change in the current trace
